# Test system: HIV-1 strain IIIB
# Experiment: Retrovirucidal effect on HIV-1 strain IIIB (Table 3)
# Assay type: cell-based
# Conditions: pIC50=-log IC50, IC50 in M
# Procedure: HIV-1 viral suspensions were obtained by coculture of MT4 cells and H9 cells chronically infected by HIV-ILai isolate. 200 μl of a cell supernatant containing viral particles (HIV-ILai: 100 TCID50) were incubated at room temperature with various concentrations of different inhibitors. After 3 hours, virions were washed through 0.02 μm anopore membrane in 1.5 mL Vectaspin tube (Whatman) for 10 minutes at 5 000 g. Each of the three subsequent washes was performed in the same conditions after the viral concentrate was refilled with 500 μL of RPMI medium. Then, the viral concentrate was readjusted to the initial volume with RPMI plus 10% foetal calf serum (FCS). The residual infectivity was assayed on P4 cells as described by CHARNEAU et al. (1994, J. Mol. Biol., 241, 651-662). Briefly, P4 cells were plated using 100 μL of DMEM medium plus 10% FCS in 96 plate multi-wells at 20×10^5 cells per mL. After overnight incubation at 37° C., the supernatant was discarded and the viral preparation (200 μL) was added. One day later the wells were washed three times in PBS. Each well was refilled with 200 μL of a reaction buffer containing 50 mM Tris-HCl pH 8.5, 100 mM 2-mercaptoethanol, 0.05% Triton X-100 and 5 mM 4-methylumbelliferyl β-D-galactopyranoside (MUG). After 3 hours at 37° C., the level of the reaction was measured in a fluorescence microplate reader.
# The retrovirucidal effect of each pyridinone derivative listed in table 3 has been assayed according to the teachings of example 2, excepted that the anti-viral effect has been tested on the two following HIV-1 strains:
# a) HIV-1 strain IIIB (see example 2);
row,SMILES,HIV1 pIC50 strain IIIB
1,CCc1c(C)[nH]c(=O)c(N(C)C)c1Cc1ccc(Cl)cc1 [Compound 55],6.651
2,CCc1c(C)[nH]c(=O)c(N(C)C)c1Cc1nccn1C [Compound 88],<4
3,CCCCc1cc(Cc2cc(C)cc(C)c2)c(N)c(=O)[nH]1 [Compound 89],6.237
4,CCCCc1cc(Cc2cc(C)cc(C)c2)c(N(C)C)c(=O)[nH]1 [Compound 90],6.359
5,Cc1cccc(Cc2c3c([nH]c(=O)c2N)CCCC3)c1 [Compound 91],5.73
6,Cc1cccc(Cc2c3c([nH]c(=O)c2N(C)C)CCCC3)c1 [Compound 92],7.807
7,CCc1c(C)[nH]c(=O)c(N(C)C)c1C(=O)c1cccc(C)c1 [Compound 93],8.721
8,Cc1cccc(C(=O)c2c(C)c(C)[nH]c(=O)c2N)c1 [Compound 94],5.153
9,CCc1c(C)[nH]c(=O)c(N(CC)CC)c1C(=O)c1cccc(C)c1 [Compound 95],8.268
10,CCCc1cccc(Cc2c(CC)c(C)[nH]c(=O)c2N)c1 [Compound 103],5.747
11,Cc1cc(C)cc(Cc2c(Cl)c[nH]c(=O)c2N)c1 [Compound 105],4.943
12,Cc1cc(C)cc(Cc2c(Cl)c[nH]c(=O)c2N(C)C)c1 [Compound 106],7.063
13,CCc1[nH]c(=O)c(N(C)C)c(C(=O)c2cccc(C)c2)c1C [Compound 108],7.005
14,CCc1c(C)[nH]c(=O)c(N(C)C)c1Cc1cccc(CO)c1 [Compound 110],7.783
15,CCc1c(C)[nH]c(=O)c(N)c1C(=O)c1ccc2c(c1)OCCO2 [Compound 111],<4
16,CCc1c(C)[nH]c(=O)c(N(C)C)c1C(=O)c1ccc2c(c1)OCCO2 [Compound 112],6.394
17,CCc1c(C)[nH]c(=O)c(N)c1Cc1cccc2ccccc12 [Compound 113],5.273
18,CCc1c(C)[nH]c(=O)c(N(C)C)c1Cc1cccc2ccccc12 [Compound 116],6.627
19,Cc1cc(C)cc(Cc2c(C)c(C(C)C)[nH]c(=O)c2N)c1 [Compound 118],4.042

row,SMILES,HIV1 pIC50 strain IIIB
1,Cc1cc(C)cc(Cc2c(C)c(C(C)C)[nH]c(=O)c2N(C)C)c1 [Compound 119],6.114
2,CCc1c(C)[nH]c(=O)c(N)c1Cc1cccc(OC)c1 [Compound 120],5.033
3,CCc1c(C)[nH]c(=O)c(N(C)C)c1Cc1cccc(O)c1 [Compound 122],7.196
4,CCc1c(C)[nH]c(=O)c(N)c1C(=O)Cc1cccc(C)c1 [Compound 124],4.389
5,CCc1c(C)[nH]c(=O)c(N(C)C)c1C(=O)Cc1cccc(C)c1 [Compound 127],4.174
6,CCc1c(C)[nH]c(=O)c(N(C)C)c1C(=O)c1cccc(CO)c1 [Compound 128],7.848
7,Cc1cccc(Cc2c3c([nH]c(=O)c2N)CCC3)c1 [Compound 131],5.799
8,Cc1cccc(Cc2c3c([nH]c(=O)c2N(C)C)CCC3)c1 [Compound 132],7.863
9,CCc1c(C)[nH]c(=O)c(N(C)C)c1CN(C)c1cc(C)cc(C)c1 [Compound 133],4.94
10,CCc1c(C)[nH]c(=O)c(N)c1Cc1ccc2c(c1)OCCO2 [Compound 134],4.056
11,CCc1c(C)[nH]c(=O)c(N(C)C)c1Cc1ccc2c(c1)OCCO2 [Compound 135],6.688
12,CCc1c(C)[nH]c(=S)c(N(C)C)c1Cc1cc(C)cc(C)c1 [Compound 137],7.658
13,CCc1c(C)[nH]c(=O)c(NC)c1Cc1cccc(C(F)(F)F)c1 [Compound 139],6.908
14,CCc1c(C)[nH]c(=O)c(N)c1C(=O)c1cccc(C(F)(F)F)c1 [Compound 140],5.766
15,CCc1c(C)[nH]c(=O)c(N)c1Cc1ccc2c(c1)OCO2 [Compound 141],4.642
16,Cc1cccc(C(=O)c2c3c([nH]c(=O)c2N)CCC3)c1 [Compound 142],4.889
17,CCc1c(C)[nH]c(=O)c(N(C)C)c1C(=O)c1cccc(COc2ccccc2)c1 [Compound 143],7.421
18,CCc1c(C)[nH]c(=O)c(N(C)CCOCc2ccccc2)c1Cc1cccc(C)c1 [Compound 144],6.446
19,CCc1c(C)[nH]c(=O)c(N(C)C)c1Cc1ccc2c(c1)OCO2 [Compound 147],7.721

row,SMILES,HIV1 pIC50 strain IIIB
1,Cc1cccc(C(=O)c2c3c([nH]c(=O)c2N(C)C)CCC3)c1 [Compound 148],7.863
2,CCc1c(C)[nH]c(=O)c(N)c1C(=O)c1ccc2c(c1)OCO2 [Compound 150],4.881
3,CCc1c(C)[nH]c(=O)c(N(C)C)c1C(=O)c1ccc2c(c1)OCO2 [Compound 151],7.845
4,CCc1c(Cc2cc(C)cc(C)c2)c(N(C)C)c(=O)n(-c2ccccc2)c1C [Compound 152],4.21
5,CCc1c(Cc2cc(C)cc(C)c2)c(N(C)C)c(=O)n(N)c1C [Compound 153],6.749
6,CCc1c(C)[nH]c(=O)c(N(C)CCC(C)C)c1Cc1cccc(C)c1 [Compound 155],7.514
7,CCc1c(C)[nH]c(=O)c(N)c1Cc1ccc(OC)c(C)c1 [Compound 156],4.934
8,CCc1c(C)[nH]c(=O)c(N(C)C)c1Cc1ccc(OC)c(C)c1 [Compound 157],6.413
9,CCc1c(C)[nH]c(=O)c(N)c1Sc1cccc(C)c1 [Compound 159],7.011
10,CCc1c(C)[nH]c(=O)c(N(CCOC)CCOC)c1Cc1cccc(C)c1 [Compound 180],5.988
11,CCOc1cccc(Cc2c(CC)c(C)[nH]c(=O)c2N(C)C)c1 [Compound 181],7.928
12,CCc1c(C)[nH]c(=O)c(N)c1C(=O)c1cc(F)cc(C(F)(F)F)c1 [Compound 182],5.933
13,CCc1c(C)[nH]c(=O)c(N(C)C)c1C(=O)c1cc(F)cc(C(F)(F)F)c1 [Compound 183],8.481
14,CCc1c(C)[nH]c(=O)c(N)c1C(=O)c1cc(Br)cs1 [Compound 186],5.781
15,CCc1c(C)[nH]c(=O)c(N)c1Sc1cccc(Br)c1 [Compound 188],7.063
16,CCc1c(C)[nH]c(=O)c(N)c1Cc1cc(Cl)cc(Cl)c1 [Compound 189],6.401
17,CCc1c(C)[nH]c(=O)c(N)c1C(=O)c1cc(Cl)cc(Cl)c1 [Compound 190],7.757
18,CCc1c(C)[nH]c(=O)c(N)c1C(=O)c1ccc(Br)s1 [Compound 194],4.665
19,CCc1c(C)[nH]c(=O)c(N(C)C)c1C(=O)c1cccc(-c2ccccc2)c1 [Compound 196],6.411

# Same assay, conditions: retrovirucidal effect, pIC50=-log IC50 (M)
row,SMILES,HIV1 pIC50 strain IIIB
1,CCc1c(C)[nH]c(=O)c(N)c1Oc1cc(C)cc(C)c1 [Compound 197],7.307
2,Cc1c[nH]c(=O)c(N)c1SCc1ccccc1 [Compound 198],4.457
3,CCc1c(C)[nH]c(=O)c(N)c1Cc1ccccc1Br [Compound 202],5.715
4,CCc1c(C)[nH]c(=O)c(N(C)C)c1Cc1ccccc1Br [Compound 203],8.161

# From patent US6683079B2, “3-(amino-or aminoalkyl) pyridinone derivatives and their use for the treatment of HIV related diseases” (Centre National de la Recherche Scientifique, priority 1998, dated 2004)
